Where two headings read alike, the source gives them in different places.

What is called inhibition is the percentage by which the read-out fell short of the control. Low readings indicate a weak effect, high ones a strong effect.

One experiment concerns THP-1 cells. The experiment is described as follows: THP-1 WST-1 assay. Type of experiment: cell-based. Conditions: Homo sapiens, 1 μM test compound, 48 hrs, average of three replicates. As for the experimental part: THP-1 cells were plated at […] (400,000 cells per mL) in a final volume of 150 μL media (RPMI-1640 containing 10% v/v FBS) containing 1 μM test compound. Samples were incubated for 48 hrs at which point 15 μL WST-1 solution (Sigma-Aldrich) was added. Light was excluded and the samples incubated for a further 2 hrs. Absorbance of wells were read at 450 nm and 630 nm using a Hidex Sense plate reader. Metabolic inhibition was determined by the absorbance at 450 nm and transformed to % control using Excel. Data reported is an average of three replicates.
A general note: Tetrazolium dyes change colour on reduction, which living cells bring about.

Experiment [1] deals with T1, NAMPT (Homo sapiens (Human), UniProt P43490). The experiment is described as follows: Tm shift assay (thermal melting, SYPRO Orange). Type of experiment: binding. Conditions: read-out: NAMPT Tm shift.
T1 sequence (P43490 whole entry, species assumed): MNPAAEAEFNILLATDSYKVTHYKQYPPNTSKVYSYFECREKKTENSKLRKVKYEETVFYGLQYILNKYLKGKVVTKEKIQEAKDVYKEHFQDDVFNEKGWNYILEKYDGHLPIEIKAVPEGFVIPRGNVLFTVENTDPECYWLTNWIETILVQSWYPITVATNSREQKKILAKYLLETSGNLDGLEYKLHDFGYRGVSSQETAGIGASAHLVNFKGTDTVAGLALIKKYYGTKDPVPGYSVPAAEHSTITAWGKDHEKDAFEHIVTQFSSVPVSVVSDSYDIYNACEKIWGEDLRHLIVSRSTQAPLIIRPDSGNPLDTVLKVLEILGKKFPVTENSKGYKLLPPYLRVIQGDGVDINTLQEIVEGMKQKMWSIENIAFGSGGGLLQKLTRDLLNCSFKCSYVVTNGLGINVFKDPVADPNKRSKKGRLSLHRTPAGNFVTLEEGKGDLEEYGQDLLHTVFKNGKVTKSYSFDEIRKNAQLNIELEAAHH
The target of experiment [2] is T1, NAMPT. Put plainly: Native mass spectrometry of NAMPT incubated with compound. It is filed as binding. Conditions: NAMPT 5 μmol/l with compound 5 μmol/l, 12 hours; m/z 6125-6500 region.
The mark [3] stands for this setting: compound 100 μM, shift vs protein without ligand, mean of 3 independent repeats.

Turning to `O=C(NCc1ccc(F)c(-c2ccc3cc(S(=O)(=O)O)cc(S(=O)(=O)O)c3c2)c1)Nc1ccc(S(=O)(=O)N2CCCCC2)cc1` [Example 1, 6-(2-fluoro-5-((3-(4-(piperidin-1-ylsulfonyl)phenyl)ureido)methyl)phenyl)-4-(trioxidaneylthio)naphthalene-2-sulfonic acid], in the experiment on THP-1 cells, the inhibition at 1 µM was less than 0%. The ΔTm at 100 µM on NAMPT [1] (setting [3]) was found to be 10.3 °C.

With `O=C(/C=C/c1ccc(F)c(-c2ccc3cc(S(=O)(=O)O)cc(S(=O)(=O)O)c3c2)c1)NCCCCC1CCN(C(=O)c2ccccc2)CC1` [Example 2, (E)-6-(5-(3-((4-(1-benzoylpiperidin-4-yl)butyl)amino)-3-oxoprop-1-en-1-yl)-2-fluorophenyl)-4-(trioxidaneylthio)naphthalene-2-sulfonic acid], the inhibition at 1 µM with THP-1 cells was 70.4%. Further, on NAMPT [1] (setting [3]), the ΔTm at 100 µM came out at 9.1 °C.

Turning to `O=C(NCc1ccc(F)c(-c2ccc3cc(S(=O)(=O)O)cc(S(=O)(=O)O)c3c2)c1)Nc1ccc(S(=O)(=O)c2ccccc2)cc1` [Example 3, 6-(2-fluoro-5-((3-(4-(phenylsulfonyl)phenyl)ureido)methyl)phenyl)-4-(trioxidaneylthio) naphthalene-2-sulfonic acid], the inhibition at 1 µM in the experiment with THP-1 cells is less than 0%. The ΔTm at 100 µM on NAMPT [1] (setting [3]) is 12.2 °C.

With `O=S(=O)(O)c1cc(S(=O)(=O)O)c2cc(-c3cccc(-c4cn(CCCCCCOc5ccccc5-c5ccccc5)nn4)c3)ccc2c1` [Example 4], the inhibition at 1 µM with THP-1 cells was less than 0%.

The compound `O=C(NCc1cccc(-c2ccc3cc(S(=O)(=O)O)cc(S(=O)(=O)O)c3c2)c1)Nc1ccc(S(=O)(=O)N2CCCCC2)cc1` [Example 5] gave an inhibition at 1 µM with THP-1 cells of less than 0%. Moreover, the ΔTm at 100 µM at NAMPT [1] (setting [3]) amounted to 10.8 °C.

Turning to `O=C(NCc1cc(-c2ccc3cc(S(=O)(=O)O)cc(S(=O)(=O)O)c3c2)ccc1F)Nc1ccc(S(=O)(=O)N2CCCCC2)cc1` [Example 6, 6-(4-fluoro-3-((3-(4-(piperidin-1-ylsulfonyl)phenyl)ureido)methyl)phenyl)-4-(trioxidaneylthio) naphthalene-2-sulfonic acid], testing at 1 µM in the experiment on THP-1 cells gave an inhibition of 1%. The ΔTm at 100 µM on NAMPT [1] (setting [3]) was 9.6 °C.

In the experiment with THP-1 cells, `COc1ccc(CNC(=O)Nc2ccc(S(=O)(=O)N3CCCCC3)cc2)cc1-c1ccc2cc(S(=O)(=O)O)cc(S(=O)(=O)O)c2c1` [Example 7] yielded an inhibition at 1 µM of less than 0%. Further, at NAMPT [1] (setting [3]), the ΔTm at 100 µM is 7.5 °C.

Compound `O=C(NCc1ccc(F)c(-c2ccc3cc(S(=O)(=O)O)cc(S(=O)(=O)O)c3c2)c1)Nc1ccc(S(=O)(=O)N2CC3CCC(C2)O3)cc1` [Example 8, 6-(5-((3-(4-((8-oxa-3-azabicyclo[3.2.1]octan-3-yl)sulfonyl)phenyl)ureido)methyl)-2-fluorophenyl)-4-(trioxidaneylthio)naphthalene-2-sulfonic acid] yielded an inhibition at 1 µM with THP-1 cells of less than 0%. Besides, the ΔTm at 100 µM on NAMPT [1] (setting [3]) stood at 9.7 °C.

As for `O=C(NCc1ccc(S(=O)(=O)N2CCCCC2)cc1)c1cc2cc(-c3ccc4cc(S(=O)(=O)O)cc(S(=O)(=O)O)c4c3)ccc2[nH]1` [Example 9], in the experiment on THP-1 cells, the inhibition at 1 µM is less than 0%. The ΔTm at 100 µM on NAMPT [1] (setting [3]) amounted to 4.2 °C.

In the case of `O=C(NC[C@@H]1CCOC1)c1ccc(NC(=O)N2Cc3ccc(-c4ccc5cc(S(=O)(=O)O)cc(SOOO)c5c4)cc3C2)cc1` [Example 10, (S)-6-(2-((4-(((Tetrahydrofuran-3-yl)methyl)carbamoyl)phenyl)carbamoyl)isoindolin-5-yl)-4-(trioxidaneylthio)naphthalene-2-sulfonic acid], the ΔTm at 100 µM at NAMPT [1] (setting [3]) came to 20.5 °C.

`O=C(/C=C/c1cccnc1)NCCCCC1CCN(C(=O)c2ccccc2)CC1` [FK866, (E)-N-[4-(1-benzoylpiperidin-4-yl)butyl]-3-pyridin-3-ylprop-2-enamide, reference compound]: on NAMPT [2], the “complex between NAMPT and compound in native mass spectrum” value was “complex dissociates”. This compound also gave an inhibition at 1 µM in the experiment on THP-1 cells of 79.6%. Moreover, the ΔTm at 100 µM on NAMPT [1] was determined as 2.6 °C.

These data come from patent US20240300968A1, “6-SUBSTITUTED NAPHTHALENE-1,3-DISULFONIC ACID DERIVATIVES AS MODULATORS OF THE EXTRACELLULAR NICOTINAMIDE PHOSPHORIBOSYL TRANSFERASE (ENAMPT) FOR THE TREATMENT OF E.G. DIABETES” (The University of Manchester, priority 2021, published 2024).
